Results from US12065436B2, “Cardiac sarcomere inhibitors” (Cytokinetics, Inc., priority 2018, dated 2024).

Target: bovine cardiac myofibrils (full-length cardiac myosin ATPase in the native sarcomere) (Bos taurus (Bovine), UniProt Q9BE39)
Test: Skinned bovine cardiac myofibril ATPase assay (PK/LDH-coupled)
Type: biochemical
Settings: Ca2+ activating to 75% of maximal rate; for CDMF75 IC15: concentration giving 15% inhibition; for IC50: read-out: CDMF75 IC50
How it was run: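 Triton-skinned bovine left-ventricle myofibrils (1 mg/mL) in PM 12 buffer (12 mM PIPES, 2 mM MgCl2, pH 6.8) with 50 μM ATP, 0.6 mM EGTA and CaCl2 set for 50% or 75% activation. Steady-state ATPase inhibition followed by PK/LDH-coupled NADH oxidation at 340 nm.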

bovine cardiac myofibrils (full-length cardiac myosin ATPase in the native sarcomere), sequence (Q9BE39 whole entry): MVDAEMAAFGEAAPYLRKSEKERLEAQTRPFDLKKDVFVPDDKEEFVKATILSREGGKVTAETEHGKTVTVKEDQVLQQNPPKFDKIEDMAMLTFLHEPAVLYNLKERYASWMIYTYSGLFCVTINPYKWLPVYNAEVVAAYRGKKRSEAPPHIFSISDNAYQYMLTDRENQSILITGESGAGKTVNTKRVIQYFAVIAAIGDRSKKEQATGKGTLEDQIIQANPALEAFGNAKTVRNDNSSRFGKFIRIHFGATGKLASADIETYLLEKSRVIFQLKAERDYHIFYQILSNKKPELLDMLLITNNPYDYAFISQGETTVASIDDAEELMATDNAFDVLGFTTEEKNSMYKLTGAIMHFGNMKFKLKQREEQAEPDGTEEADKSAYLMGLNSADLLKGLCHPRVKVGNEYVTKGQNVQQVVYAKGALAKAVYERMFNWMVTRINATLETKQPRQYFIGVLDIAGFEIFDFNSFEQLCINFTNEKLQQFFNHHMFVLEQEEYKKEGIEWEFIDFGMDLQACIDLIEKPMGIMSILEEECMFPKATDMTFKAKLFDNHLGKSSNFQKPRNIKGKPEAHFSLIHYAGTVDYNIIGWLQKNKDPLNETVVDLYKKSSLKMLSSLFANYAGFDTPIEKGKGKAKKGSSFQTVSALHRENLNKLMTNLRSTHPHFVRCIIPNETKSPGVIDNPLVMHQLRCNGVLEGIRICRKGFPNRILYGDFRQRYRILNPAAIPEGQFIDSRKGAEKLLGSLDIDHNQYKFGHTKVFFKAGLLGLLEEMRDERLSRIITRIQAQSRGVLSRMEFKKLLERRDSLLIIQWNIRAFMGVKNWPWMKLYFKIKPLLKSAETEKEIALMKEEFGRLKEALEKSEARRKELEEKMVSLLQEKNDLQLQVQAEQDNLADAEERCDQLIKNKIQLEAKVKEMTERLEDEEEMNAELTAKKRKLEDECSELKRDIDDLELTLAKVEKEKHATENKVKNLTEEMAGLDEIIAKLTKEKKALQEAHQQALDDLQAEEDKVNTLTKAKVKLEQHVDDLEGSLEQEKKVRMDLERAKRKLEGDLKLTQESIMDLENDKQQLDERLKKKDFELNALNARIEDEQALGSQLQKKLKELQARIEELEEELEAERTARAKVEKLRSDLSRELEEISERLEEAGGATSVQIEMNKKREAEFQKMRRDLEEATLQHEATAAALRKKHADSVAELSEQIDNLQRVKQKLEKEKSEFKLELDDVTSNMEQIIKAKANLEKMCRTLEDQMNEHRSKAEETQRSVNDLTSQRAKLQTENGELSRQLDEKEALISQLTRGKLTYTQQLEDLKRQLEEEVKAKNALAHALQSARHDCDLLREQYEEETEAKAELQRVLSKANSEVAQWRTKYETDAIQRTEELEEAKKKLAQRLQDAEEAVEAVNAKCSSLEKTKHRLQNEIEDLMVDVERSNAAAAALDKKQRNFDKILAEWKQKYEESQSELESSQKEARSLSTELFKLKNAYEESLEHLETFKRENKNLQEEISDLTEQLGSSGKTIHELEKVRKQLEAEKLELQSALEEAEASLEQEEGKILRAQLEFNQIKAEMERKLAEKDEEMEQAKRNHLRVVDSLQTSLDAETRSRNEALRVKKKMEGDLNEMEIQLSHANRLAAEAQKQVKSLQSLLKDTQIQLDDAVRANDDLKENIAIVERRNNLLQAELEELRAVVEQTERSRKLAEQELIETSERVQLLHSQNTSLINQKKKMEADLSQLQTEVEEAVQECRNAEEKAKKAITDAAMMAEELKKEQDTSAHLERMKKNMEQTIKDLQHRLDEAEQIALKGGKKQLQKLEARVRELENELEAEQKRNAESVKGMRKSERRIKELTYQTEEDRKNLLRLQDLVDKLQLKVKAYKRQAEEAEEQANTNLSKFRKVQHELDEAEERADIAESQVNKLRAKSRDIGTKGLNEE
bovine cardiac myofibrils (full-length cardiac myosin ATPase in the native sarcomere), sequence (P85100 whole entry partner): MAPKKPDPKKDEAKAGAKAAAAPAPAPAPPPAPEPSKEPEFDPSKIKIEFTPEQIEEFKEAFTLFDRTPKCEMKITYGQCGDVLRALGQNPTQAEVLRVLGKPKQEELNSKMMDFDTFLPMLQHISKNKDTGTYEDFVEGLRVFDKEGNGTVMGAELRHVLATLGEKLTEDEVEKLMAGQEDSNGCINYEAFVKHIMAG
bovine cardiac myofibrils (full-length cardiac myosin ATPase in the native sarcomere), sequence (Q3SZE5 whole entry partner): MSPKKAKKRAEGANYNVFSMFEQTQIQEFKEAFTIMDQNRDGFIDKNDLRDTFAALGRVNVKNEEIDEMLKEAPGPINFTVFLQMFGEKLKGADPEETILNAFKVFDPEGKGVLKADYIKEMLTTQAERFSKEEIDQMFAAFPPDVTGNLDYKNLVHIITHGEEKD

SMILES | CDMF75 IC15 [µM] | IC50 [µM]
Cc1cc(C(=O)N[C@@H]2CCc3cc(-c4nc(C(F)F)no4)ccc32)n(C)n1 [Compound 213, (R)-N-(5-(3-(difluoromethyl)-1,2,4-oxadiazol-5-yl)-2,3-dihydro-1H-inden-1-yl)-1,3-dimethyl-1H-pyrazole-5-carboxamide] | 1.2 | 4.7
CCc1nc(-c2ccc3c(c2)CC[C@H]3NC(=O)C2CCCCN2C)no1 (stereo partly drawn) [Compound 353, N-((R)-5-(5-ethyl-1,2,4-oxadiazol-3-yl)-2,3-dihydro-1H-inden-1-yl)-1-methylpiperidine-2-carboxamide] | 29.0 | > 39.2
CCc1nc(-c2ccc3c(c2)OC[C@H]3NC(=O)c2cc(C)nn2C)no1 [Compound 231, (S)-N-(6-(5-ethyl-1,2,4-oxadiazol-3-yl)-2,3-dihydrobenzofuran-3-yl)-1,3-dimethyl-1H-pyrazole-5-carboxamide] | 0.3 | 1
CC1(C(=O)N[C@@H]2CCc3cc(-c4noc(C5CC5)n4)ccc32)CC1 [Compound 330, (R)-N-(5-(5-cyclopropyl-1,2,4-oxadiazol-3-yl)-2,3-dihydro-1H-inden-1-yl)-1-methylcyclopropane-1-carboxamide] | 3.8 | 17.7
Cc1cc(-c2ccc3c(c2)OC[C@H]3NC(=O)c2ocnc2C)no1 [Compound 429, (S)-4-methyl-N-(6-(5-methylisoxazol-3-yl)-2,3-dihydrobenzofuran-3-yl)oxazole-5-carboxamide] | 0.5 | 1.5
CCc1nc(-c2ccc3c(c2)CC[C@H]3NC(=O)c2cnn(CCOC(C)=O)c2)no1 [Compound 494, (R)-2-(4-((5-(5-ethyl-1,2,4-oxadiazol-3-yl)-2,3-dihydro-1H-inden-1-yl)carbamoyl)-1H-pyrazol-1-yl)ethyl acetate] | 2.4 | 10
Cc1cc(C(=O)N[C@@H]2CCc3cc(-c4nnn(C)n4)ccc32)ccn1 [Compound 147, (R)-2-methyl-N-(5-(2-methyl-2H-tetrazol-5-yl)-2,3-dihydro-1H-inden-1-yl)isonicotinamide] | 1.3 | 6.2
O=C(N[C@@H]1CCc2cc(-c3noc(C(F)F)n3)ccc21)N1CCCC1 [Compound 300, (R)-N-(5-(5-(difluoromethyl)-1,2,4-oxadiazol-3-yl)-2,3-dihydro-1H-inden-1-yl)pyrrolidine-1-carboxamide] | 12.3 | > 39.2
CNC(=O)N[C@@H]1CCc2cc(-c3noc(C(F)F)n3)ccc21 [Compound 295, (R)-1-(5-(5-(difluoromethyl)-1,2,4-oxadiazol-3-yl)-2,3-dihydro-1H-inden-1-yl)-3-methylurea] | 4.9 | > 39.2
CCc1nc(-c2ccc3c(c2)CC[C@H]3NC(=O)c2c[nH]nc2C)no1 [Compound 398, (R)-N-(5-(5-ethyl-1,2,4-oxadiazol-3-yl)-2,3-dihydro-1H-inden-1-yl)-3-methyl-1H-pyrazole-4-carboxamide] | 0.4 | 1.2
Cc1csc(C(=O)NC2CCc3cc(-c4noc(C)n4)ccc32)n1 (stereo not shown) [Compound 63, 4-methyl-N-(5-(5-methyl-1,2,4-oxadiazol-3-yl)-2,3-dihydro-1H-inden-1-yl)thiazole-2-carboxamide] | 2.3 | 10.1
COCc1nc(-c2ccc3c(c2)CC[C@H]3NC(=O)c2ccnc(C)c2)no1 [Compound 176, (R)-N-(5-(5-(methoxymethyl)-1,2,4-oxadiazol-3-yl)-2,3-dihydro-1H-inden-1-yl)-2-methylisonicotinamide] | 1.2 | 4.5
COCc1nc(-c2ccc3c(c2)OC[C@@H]3NC(=O)c2cc(C)nn2C)no1 [Compound 225, (R)-N-(6-(5-(methoxymethyl)-1,2,4-oxadiazol-3-yl)-2,3-dihydrobenzofuran-3-yl)-1,3-dimethyl-1H-pyrazole-5-carboxamide] | 39.2 | 39.2
Cc1ncc(C(=O)NC2CCc3cc(-c4noc(C(F)F)n4)ccc32)n1C (stereo not shown) [Compound 61, N-(5-(5-(difluoromethyl)-1,2,4-oxadiazol-3-yl)-2,3-dihydro-1H-inden-1-yl)-1,2-dimethyl-1H-imidazole-5-carboxamide] | 1.1 | 3.5
CCc1nc(-c2ccc3c(c2)CC[C@H]3NC(=O)OCC2CN(C(C)=O)C2)no1 [Compound 360, (1-acetylazetidin-3-yl)methyl (R)-(5-(5-ethyl-1,2,4-oxadiazol-3-yl)-2,3-dihydro-1H-inden-1-yl)carbamate] | 21.6 | > 39.2
Cc1ccc(-c2ccc3c(c2)CC[C@H]3NC(=O)c2ccnn2C)cc1 [Compound 374, (R)-1-methyl-N-(5-(p-tolyl)-2,3-dihydro-1H-inden-1-yl)-1H-pyrazole-5-carboxamide] | 1.7 | 6.4

SMILES | CDMF75 IC15 [µM] | IC50 [µM]
Cc1cc(-c2ccc3c(c2)OC[C@H]3NC(=O)c2cnc(C)o2)no1 [Compound 428, (S)-2-methyl-N-(6-(5-methylisoxazol-3-yl)-2,3-dihydrobenzofuran-3-yl)oxazole-5-carboxamide] | 1.0 | 3.4
[2H]C([2H])([2H])c1nc(-c2ccc3c(c2)CC[C@H]3NC(=O)c2ccc(=O)n(C)c2)no1 [Compound 646, (R)-1-methyl-N-(5-(5-(methyl-d3)-1,2,4-oxadiazol-3-yl)-2,3-dihydro-1H-inden-1-yl)-6-oxo-1,6-dihydropyridine-3-carboxamide] | 2.2 | 9
CC(=O)N[C@@H]1COc2cc(-c3noc(C4(C)CC4)n3)ccc21 [Compound 461, (S)-N-(6-(5-(1-methylcyclopropyl)-1,2,4-oxadiazol-3-yl)-2,3-dihydrobenzofuran-3-yl)acetamide] | 1.3 | 6.5
CCc1nc(-c2cc(O)c3c(c2)CC[C@H]3NC(=O)c2cnn(C)c2)no1 [Compound 609, N-[(1R)-5-(5-ethyl-1,2,4-oxadiazol-3-yl)-7-hydroxy-2,3-dihydro-1H-inden-1-yl]-1-methyl-1H-pyrazole-4-carboxamide] | 0.3 | 0.9
Cc1nc(-c2ccc3c(c2)OCC3NC(=O)c2cn(C)nc2C)no1 (stereo not shown) [Compound 157, 1,3-dimethyl-N-(6-(5-methyl-1,2,4-oxadiazol-3-yl)-2,3-dihydrobenzofuran-3-yl)-1H-pyrazole-4-carboxamide] | 1.4 | 5.9
Cc1cc(C(=O)N[C@@H]2COc3cc(-c4noc(C5CC5)n4)ccc32)n(C)n1 [Compound 233, (S)-N-(6-(5-cyclopropyl-1,2,4-oxadiazol-3-yl)-2,3-dihydrobenzofuran-3-yl)-1,3-dimethyl-1H-pyrazole-5-carboxamide] | 0.3 | 1.1
CCc1nc(-c2ccc3c(c2)CC[C@H]3NC(=O)c2cnc(C)o2)no1 [Compound 385, (R)-N-(5-(5-ethyl-1,2,4-oxadiazol-3-yl)-2,3-dihydro-1H-inden-1-yl)-2-methyloxazole-5-carboxamide] | 0.5 | 1.7
Cc1cc(C(=O)NC2COc3cc(-c4noc(C)n4)ccc32)n(C)n1 (stereo not shown) [Compound 155, 1,3-dimethyl-N-(6-(5-methyl-1,2,4-oxadiazol-3-yl)-2,3-dihydrobenzofuran-3-yl)-1H-pyrazole-5-carboxamide] | 1.0 | 4.1
COCc1nc(-c2ccc3c(c2)CC[C@H]3NC(=O)c2cc(C)no2)no1 [Compound 688, (R)-N-(5-(5-(methoxymethyl)-1,2,4-oxadiazol-3-yl)-2,3-dihydro-1H-inden-1-yl)-3-methylisoxazole-5-carboxamide] | 1.7 | 6.8
Cc1ncc(C(=O)N[C@@H]2COc3cc(-c4noc(C5(C)CC5)n4)ccc32)o1 [Compound 466, (S)-2-methyl-N-(6-(5-(1-methylcyclopropyl)-1,2,4-oxadiazol-3-yl)-2,3-dihydrobenzofuran-3-yl)oxazole-5-carboxamide] | 0.8 | 2.9
CCc1nc(-c2ccc3c(c2)CC[C@H]3NC(=O)c2ccn(C)c(=O)c2)no1 [Compound 558, (R)-N-(5-(5-ethyl-1,2,4-oxadiazol-3-yl)-2,3-dihydro-1H-inden-1-yl)-1-methyl-2-oxo-1,2-dihydropyridine-4-carboxamide] | 2.0 | 8.3
CCc1nc(-c2ccc3c(c2)CC[C@H]3NC(=O)c2ncco2)no1 [Compound 593, (R)-N-(5-(5-ethyl-1,2,4-oxadiazol-3-yl)-2,3-dihydro-1H-inden-1-yl)oxazole-2-carboxamide] | 0.5 | 2.1
Cn1nccc1C(=O)N[C@@H]1CCc2cc(-c3ncccn3)ccc21 [Compound 366, (R)-1-methyl-N-(5-(pyrimidin-2-yl)-2,3-dihydro-1H-inden-1-yl)-1H-pyrazole-5-carboxamide] | 8.6 | > 39.2
Cc1nc(-c2ccc3c(c2)CC[C@H]3NC(=O)OCC(C)C)no1 [Compound 320, isobutyl (R)-(5-(5-methyl-1,2,4-oxadiazol-3-yl)-2,3-dihydro-1H-inden-1-yl)carbamate] | 0.7 | 3.1
COCc1nc(-c2ccc3c(c2)CC[C@H]3NC(=O)c2cn[nH]c2)no1 [Compound 490, (R)-N-(5-(5-(methoxymethyl)-1,2,4-oxadiazol-3-yl)-2,3-dihydro-1H-inden-1-yl)-1H-pyrazole-4-carboxamide] | 1.6 | 6.9
CC(C)c1nc(-c2ccc3c(c2)CC[C@H]3NC(=O)c2cnn(C)c2)no1 [Compound 394, (R)-N-(5-(5-isopropyl-1,2,4-oxadiazol-3-yl)-2,3-dihydro-1H-inden-1-yl)-1-methyl-1H-pyrazole-4-carboxamide] | 1.2 | 4.1
